Data as given in PMC10779086, “3-O-Methyltolcapone and Its Lipophilic Analogues Are Potent Inhibitors of Transthyretin Amyloidogenesis with High Permeability and Low Toxicity” (International Journal of Molecular Sciences, 2023).

Legend:
[1] = Blood-brain barrier permeability (PAMPA-BBB); assay type: in vitro ADME; details: for Papp: PBS pH 7.4, read-out: BBB-Pe; for CNS Class: classified by Pe; for permeability (Pe) times higher compared to tolcapone: relative to tolcapone
Description: (§1) The assay combines solubility and a non-cell-based Blood Brain Barrier permeability assay (Parallel Artificial Membrane Permeation Assay; PAMPA-BBB) into a single workflow in which a portion of the filtrate from the Solubility filter plate is added to the donor compartment of the MultiScreen filter plate for the PAMPA-BBB analysis. […] Solutions were filtered into a 96-well collection plate using vacuum filtration and then analysed by UV/Vis spectroscopy. The relative solubility was then calculated using the sum of the recorded values as compared to a standard calibration curve. […] PAMPA-BBB determination was carried out in a 96-well MultiScreen Permeability plate and the ability of a compound to diffuse from a Donor to an Acceptor compartment separated by a Porcine Brain Lipid Extract (PBLE) dissolved in dodecane (20 mg/mL) layer on a PVDF membrane support was measured. The assay was performed in duplicate in PBS at pH 7.4 and the analysis is carried out by UV/Vis spectroscopy.
The compounds are classified into 2 types: CNS+ compounds that can cross the BBB and CNS- compounds that cannot according to the Pe values (BBB−, Pe < 2 × 10^−6 cm/s; BBB +/−, 2 × 10^−6 cm/s < Pe < 4 × 10^−6 cm/s; BBB+, Pe > 4 × 10^−6 cm/s).
Membrane retention is also evaluated according to Equation (1), (1) 1−Rm=CAccVAcc+CDonorVDonor/Sol×VDonor where Rm is the membrane retention factor. 1 − Rm between 1.2 and 0.8 is considered fully acceptable for the reliability of the results.

[2] = Kinetic solubility in PBS; assay type: physicochemical; details: Phosphate Buffered Saline (PBS), aqueous buffer, kinetic from dmso stock, PBS pH 7.4, 1% DMSO
Description: as §1

Caco-2 cells = experiment: Caco-2 intestinal permeability; assay type: in vitro ADME, human; details: A→B, relative to tolcapone
Description: Caco-2 cells (cod. HTB-37) were bought from ATCC (American Type Culture Collection, Rockville, MD, USA). Caco-2 cells were cultured for 21 days on a 24 trans-well plate to reach the right confluence and differentiate until the formation of the intestinal epithelium mimetic monolayer. The test substance permeability was measured in both directions (apical to basolateral [A→B] and basolateral to apical [B→A]) across the cell monolayer. The assay was carried out in HBSS transport medium at pH 7.4. Test substance at single concentration (10 μM) was tested in duplicate at one time point (60 min). Monolayer integrity of Caco-2 cells was evaluated by TEER measurements during the experiment and by Lucifer Yellow test after the incubation with the test compound. The concentrations of the test substance and/or reference controls were measured by LC-MS/MS.
When the inhibitor leads the efflux ratio to a significant reduction (>50%) or to unity, the test compound is classified as a probable substrate of that efflux transporter. As control, the modulation of the efflux ratio of a reference known substrate (Digoxin) was evaluated with or without the respectively inhibitors in every experiment. […] In parallel, mass balance (%) of recovered test substance was also determined. […] Outside these ranges the permeability data is not reliable.

[3] = plasma; cited from earlier work

Structure (SMILES)	1-Rm (membrane retention) [1]	Papp [1] [×10⁻⁶ cm/s]	CNS Class [1]	permeability (Pe) times higher compared to tolcapone [1] [times]	melting point [°C]	solubility [2] [µM]	increase of permeability Papp value (A→B) compared to tolcapone (Caco-2 cells) [fold]	half-life [3] [h]
COc1cc(C(=O)c2ccc(C)cc2C)cc([N+](=O)[O-])c1O [Compound 2, (4-Hydroxy-3-methoxy-5-nitrophenyl)-1-(2,4-dimethylphenyl)methanone]	1.0	13.5	CNS+ (BBB+, Pe > 4 × 10^−6 cm/s)	2.5	126 to 127	> 500	2.5	–
COc1cc(C(=O)c2ccc(C)cc2)cc([N+](=O)[O-])c1O [3-OMT, 3-O-methyltolcapone]	0.9	14.4	CNS+ (BBB+, Pe > 4 × 10^−6 cm/s)	2.5	–	> 500	–	40.9
COc1cc(C(=O)c2cc(C)cc(C)c2)cc([N+](=O)[O-])c1O [Compound 1, (4-Hydroxy-3-methoxy-5-nitrophenyl)-1-(3,5-dimethylphenyl)methanone]	0.9	15.3	CNS+ (BBB+, Pe > 4 × 10^−6 cm/s)	2.5	144 to 145	> 500	2.5	–
